Columns and labels:
Format in all cases: in vivo
[1] = system: diamondback moths (Plutella xylostella); test: Test Example 1: cabbage foliar spray, diamondback moth larvae, controlling value; conditions: 120 h, flowable formulation, 20 mL/cup on cabbage, third-instar larvae, after 5 days; for pest or weed control at 500 ppm: 500 ppm active ingredient; for pest or weed control at 200 ppm: 200 ppm active ingredient
Description: Thus, test spray solutions were prepared. On the other hand, cabbage was planted in a polyethylene cup, and grown until the third true leaf or the fourth true leaf was developed. The test spray solution as described above was sprayed in an amount of 20 mL/cup on the cabbage. After the spray solution on the cabbage was dried, 10 third-instar larvae of diamondback moths (Plutella xylostella) were placed on the cabbage. After 5 days, the number of diamondback moths was counted, and the controlling value was calculated by the following equation. Controlling value(%)={1−(Cb×Tai)/(Cai×Tb))×100 wherein Cb: the number of worms in an untreated group before treatment; Cai: the number of worms in an untreated group on observation; Tb: the number of worms in a treated group before treatment; Tai: the number of worms in a treated group on observation.

[2] = system: cotton aphids (Aphis gossypii); test: Test Example 2: cucumber foliar spray, cotton aphids, controlling value; conditions: 144 h, flowable formulation, 20 mL/cup on cucumber, six days after spraying; for pest or weed control at 500 ppm: 500 ppm active ingredient; for pest or weed control at 200 ppm: 200 ppm active ingredient
Description: Thus, test spray solutions were prepared. On the other hand, cucumber was planted in a polyethylene cup, and was grown until the first true leaf was developed. About 30 cotton aphids (Aphis gossypii) were placed on the cucumber. One day after, the test spray solution as described above was sprayed in an amount of 20 mL/cup on the cucumber. Six days after spraying, the number of cotton aphids was counted, and a controlling value was calculated by the following equation. Controlling value(%)={1−(Cb×Tai)/(Cai×Tb))×100

[3] = system: summer fruit tortrix (Adoxophyes orana fasciata); test: Test Example 4: apple seedling spray, summer fruit tortrix larvae, controlling value; conditions: 168 h, flowable formulation, 20 mL on apple seedling, first-instar larvae, seven days after spraying; for pest or weed control at 500 ppm: 500 ppm active ingredient; for pest or weed control at 200 ppm: 200 ppm active ingredient
Description: Thus, test spray solutions were prepared. On the other hand, 20 mL of the test spray solution as described above was sprayed to an apple seedling (28 day-old seeding; tree height: about 15 cm) planted in a plastic cup. The apple seedling was air-dried to such an extent that the spray solution sprayed on the apple seedling was dried, and about 30 first-instar larvae of summer fruit tortrix (Adoxophyes orana fasciata) were released. Seven days after spraying, the number of worms surviving on the apple seedling was counted, and a controlling value was calculated by the following equation. Controlling value(%)={1−(Cb×Tai)/(Cai×Tb))×100

[4] = system: yellow citrus thrips (Franklinella occidentalis); test: Test Example 5: cucumber leaf spray, yellow citrus thrips larvae, controlling value; conditions: 168 h, flowable formulation, 20 mL/cup on cucumber, cut first true leaf, 20 larvae, leaf area damaged, seven days after spraying; for pest or weed control at 500 ppm: 500 ppm active ingredient; for pest or weed control at 200 ppm: 200 ppm active ingredient
Description: Thus, test spray solutions were prepared. On the other hand, cucumber was planted in a polyethylene cup, and was grown until the first true leaf was developed. The test spray solution as described above was sprayed in an amount of 20 mL/cup on the cucumber. After the spray solution on the cucumber was dried, the first true leaf was cut and then placed on a filter paper (diameter: 70 mm) containing water in a polyethylene cup (diameter: 110 mm). On the cucumber leaf, 20 larvae of yellow citrus thrips ([…] occidentalis) were released, and the polyethylene cup was capped. Seven days after spraying, the percentage of leaf area damaged by the insect was examined and a controlling value was calculated by the following equation. Controlling value(%)={1-(Cb×Tai)/(Cai×Tb))×100

[5] = system: common cutworm (Spodoptera litura); test: Test Example 3: cabbage foliar spray, common cutworm larvae, controlling value; conditions: 96 h, flowable formulation, 20 mL/cup on cabbage, fourth-instar larvae, after 4 days; for pest or weed control at 500 ppm: 500 ppm active ingredient; for pest or weed control at 200 ppm: 200 ppm active ingredient
Description: Thus, test spray solutions were prepared. On the other hand, cabbage was planted in a polyethylene cup, and grown until the third true leaf or the fourth true leaf was developed. The test spray solution as described above was sprayed in an amount of 20 mL/cup on the cabbage. After the spray solution sprayed on the cabbage was dried, 10 fourth-instar larvae of common cutworm (Spodoptera litura) were placed on the cabbage. After 4 days, the number of common cutworm surviving on the cabbage leaves was counted, and a controlling value was calculated by the following equation. Controlling value(%)={1−(Cb×Tai)/(Cai×Tb))×100

Compound | pest or weed control at 500 ppm [1] [%] | pest or weed control at 500 ppm [2] [%] | pest or weed control at 500 ppm [3] [%] | pest or weed control at 500 ppm [4] [%] | pest or weed control at 500 ppm [5] [%] | pest or weed control at 200 ppm [1] [%] | pest or weed control at 200 ppm [2] [%] | pest or weed control at 200 ppm [3] [%] | pest or weed control at 200 ppm [5] [%] | pest or weed control at 200 ppm [4] [%]
COC(=O)N(CC=C(Cl)Cl)NC(=O)c1cc(Br)cc(Br)c1NC(=O)c1cc(Br)nn1-c1ncccc1Cl [1-64] | 100 | ≥ 90 | 100 | 100 | ≥ 80 |  |  |  |  | 
C=CCN(NC(=O)c1cc(Br)cc(Br)c1NC(=O)c1cc(Br)nn1-c1ncccc1Cl)C(=O)OC [1-8] | 100 | ≥ 90 | 100 | 100 | ≥ 80 |  |  |  |  | 
C=CCN(NC(=O)OC)C(=O)c1cc(Cl)cc(C)c1NC(=O)c1cc(Br)nn1-c1ncccc1Cl [1-11] |  |  |  |  |  | 100 | ≥ 90 | 100 | ≥ 80 | 
CCN(C(=O)c1cc(Br)cc(Br)c1NC(=O)c1cc(Br)nn1-c1ncccc1Cl)N(CC#N)C(=O)OC [1-1] | 100 | ≥ 90 | 100 | 100 | ≥ 80 |  |  |  |  | 
COC(=O)NN(CCO)C(=O)c1cc(Br)cc(Br)c1NC(=O)c1cc(Br)nn1-c1ncccc1Cl [1-61] | 100 | ≥ 90 |  | 100 | ≥ 80 |  |  |  |  | 
COC(=O)NN(Cc1ccccc1)C(=O)c1cc(Cl)cc(C)c1NC(=O)c1cc(Br)nn1-c1ncccc1Cl [1-57] | 100 | ≥ 90 |  | 100 | ≥ 80 |  |  |  |  | 
COC(=O)N(NC(=O)c1cc(Br)cc(Br)c1NC(=O)c1cc(Br)nn1-c1ncccc1Cl)C1CCCCC1 [1-59] | 100 | ≥ 90 |  |  | ≥ 80 |  |  |  |  | 
C=CCN(NC(=O)OC)C(=O)c1cc(Br)cc(Br)c1NC(=O)c1cc(Br)nn1-c1ncccc1Cl [1-7] | 100 | ≥ 90 | 100 | 100 | ≥ 80 |  |  |  |  | 
C#CCN(NC(=O)OC)C(=O)c1cc(Br)cc(Br)c1NC(=O)c1cc(Br)nn1-c1ncccc1Cl [1-31] |  |  |  |  |  | 100 | ≥ 90 | 100 | ≥ 80 | 100
C#CCN(NC(=O)c1cc(Br)cc(Br)c1NC(=O)c1cc(Br)nn1-c1ncccc1Cl)C(=O)OC [1-32] |  |  |  |  |  | 100 | ≥ 90 | 100 | ≥ 80 | 100
COC(=O)NN(CC=C(Cl)Cl)C(=O)c1cc(Br)cc(Br)c1NC(=O)c1cc(Br)nn1-c1ncccc1Cl [1-63] | 100 | ≥ 90 | 100 | 100 | ≥ 80 |  |  |  |  | 
C=CCN(NC(=O)c1cc(Cl)cc(C)c1NC(=O)c1cc(Br)nn1-c1ncccc1Cl)C(=O)OC [1-12] | 100 | ≥ 90 | 100 | 100 | ≥ 80 |  |  |  |  | 
COC(=O)N(NC(=O)c1cc(Cl)cc(C)c1NC(=O)c1cc(Br)nn1-c1ncccc1Cl)C1CCCCC1 [1-60] | 100 |  | 100 |  | ≥ 80 |  |  |  |  | 
COC(=O)N(NC(=O)c1cc(Cl)cc(C)c1NC(=O)c1cc(Br)nn1-c1ncccc1Cl)c1ccccn1 [1-6] | 100 | ≥ 90 | 100 | 100 | ≥ 80 |  |  |  |  | 
COC(=O)N(NC(=O)c1cc(Br)cc(Br)c1NC(=O)c1cc(Br)nn1-c1ncccc1Cl)c1ccccn1 [1-5] | 100 | ≥ 90 | 100 | 100 | ≥ 80 |  |  |  |  | 
COC(=O)N(Cc1ccccc1)NC(=O)c1cc(Cl)cc(C)c1NC(=O)c1cc(Br)nn1-c1ncccc1Cl [1-58] | 100 | ≥ 90 |  | 100 | ≥ 80 |  |  |  |  | 
C=CCN(NC(=O)OC)C(=O)c1cc(Cl)cc(Cl)c1NC(=O)c1cc(Br)nn1-c1ncccc1Cl [1-9] | 100 | ≥ 90 | 100 | 100 | ≥ 80 |  |  |  |  | 
C=CCN(NC(=O)c1cc(Cl)cc(Cl)c1NC(=O)c1cc(Br)nn1-c1ncccc1Cl)C(=O)OC [1-10] | 100 | ≥ 90 | 100 | 100 | ≥ 80 |  |  |  |  | 

— patent US20100048640A1, “HYDRAZIDE COMPOUND AND HARMFUL ARTHROPOD-CONTROLLING AGENT CONTAINING THE SAME” (Sumitomo Chemical Company, Limited, priority 2007, published 2010)
